6 compounds from paper PMC6366404, “4-(3-Nitrophenyl)thiazol-2-ylhydrazone derivatives as antioxidants and selective hMAO-B inhibitors: synthesis, biological activity and computational analysis” (Journal of Enzyme Inhibition and Medicinal Chemistry, 2019) can be followed below.

The target in data set [1] is T1, hMAO-B (Homo sapiens, UniProt P27338).
T1 sequence (P27338 1-520): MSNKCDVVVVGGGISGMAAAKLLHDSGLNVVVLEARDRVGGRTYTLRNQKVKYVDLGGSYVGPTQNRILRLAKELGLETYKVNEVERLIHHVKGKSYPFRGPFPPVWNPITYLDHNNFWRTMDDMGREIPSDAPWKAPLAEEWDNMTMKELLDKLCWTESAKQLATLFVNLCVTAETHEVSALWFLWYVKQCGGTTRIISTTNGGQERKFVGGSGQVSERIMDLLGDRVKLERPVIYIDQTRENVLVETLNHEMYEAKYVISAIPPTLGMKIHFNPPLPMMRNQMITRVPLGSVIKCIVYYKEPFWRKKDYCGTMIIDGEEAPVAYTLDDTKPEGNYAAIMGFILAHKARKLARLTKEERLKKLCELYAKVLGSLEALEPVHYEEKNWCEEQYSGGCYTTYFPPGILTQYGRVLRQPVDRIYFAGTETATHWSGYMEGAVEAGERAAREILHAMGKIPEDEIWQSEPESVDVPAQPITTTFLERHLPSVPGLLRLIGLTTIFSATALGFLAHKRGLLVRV
The data set is described as follows: hMAO-B inhibition, IC50 determination (kynuramine fluorescence). In kind it is biochemical. To be noted: for Selectivity index (SI) for the MAO-B isoform: ratio (IC50 hMAO-A)/(IC50 hMAO-B). The method, then:
The procedure for the measurement of IC50 values for the inhibition of MAO has been reported. The enzyme reactions were prepared to a volume of […] in potassium phosphate buffer at pH 7.4 (100 mM, made isotonic with KCl) and contained kynuramine (50 μM) and the test inhibitors (0.003–100 µM). Stock solutions of the test inhibitors were prepared in DMSO and added to the reactions to yield 4% DMSO. The enzyme reactions were initiated with the addition of recombinant hMAO-A (0.0075 mg protein/mL) or hMAO-B (0.015 mg protein/mL) and incubated for 20 min at 37 °C. At endpoint, the reactions were terminated with 80 µL sodium hydroxide (2N) and the fluorescence of 4-hydroxyquinoline, the oxidation product of kynuramine, was measured (λex = 310; λem = 400 nm)[33]. 4-Hydroxyquinoline was quantified with a calibration curve (0.047–1.56 μM) and the rate of 4-hydroxyquinoline formation was fitted to the one site competition model of the Prism 5 software package (GraphPad). From the resulting sigmoidal plots, the IC50 values were estimated. All enzyme reactions were carried out in triplicate and IC50 values are given as the mean ± standard deviation (SD).

A short description of data set [2]: FRAP (ferric reducing antioxidant power) assay. The method, then: (§1) The FRAP (ferric reducing antioxidant power) assay was carried out as described by Zengin et al.[38]. The sample solution (0.1 ml) was added to the premixed FRAP reagent (2 ml) containing acetate buffer (0.3 M, pH 3.6), 2,4,6-tris(2-pyridyl)-s-triazine (10 mM) in 40 mM HCl, and ferric chloride (20 mM) in a ratio of 10/1/1 (v/v/v). The absorbance of the sample was subsequently recorded at 593 nm after 30 min incubation at room temperature. Both results were expressed as EC50 values, using trolox as a reference drug.

The nature of data set [3]: DPPH radical scavenging activity. On the procedure:
The radical scavenging effect of the compounds using the 1,1-diphenyl-2-picrylhydrazyl (DPPH) radical was estimated according to Zengin et al.[36]. The sample solution (1 ml) was added to 4 ml of a 0.004% solution of DPPH in methanol. The sample absorbance was recorded at 517 nm after 30 min incubation at room temperature in the dark.
(§2) The scavenging activity of the compounds on the ABTS radical cation [ABTS,2,2′-azino-bis(3-ethylbenzothiazoline)-6-sulphonic acid] was measured according to the method of Zengin et al.[37] with slight modification. Briefly, ABTS^+ was produced directly by reacting a 7 mM ABTS solution with 2.45 mM potassium persulphate and allowing the mixture to incubate for 12–16 h in the dark at room temperature. Prior to initiating the assay, the ABTS solution was diluted with methanol to an absorbance of 0.700 ± 0.02 at 734 nm. The sample solution (1 ml) was added to the ABTS^+ solution (2 ml) and mixed, and the sample absorbance was recorded at 734 nm after 30 min incubation at room temperature. The corresponding IC50 value, which is the effective concentration at which 50% of DPPH/ABTS radicals are scavenged, was calculated for each compound and trolox, as a reference drug.
Background: Loss of DPPH colour is used to gauge radical scavenging.

A short description of data set [4]: Phosphomolybdenum assay (PhosphoMo), total antioxidant activity. Conditions: concentration at which absorbance was 0.5. On the procedure:
The total antioxidant activity of the compounds was evaluated by phosphomolybdenum method according to Zengin et al.[35]. The sample solution (0.3 ml) was combined with 3 ml of reagent solution (0.6 M sulphuric acid, 28 mM sodium phosphate, and 4 mM ammonium molybdate) and the absorbance was recorded at 695 nm after 90 min incubation at 95 °C. The EC50, which is the effective concentration at which the absorbance was 0.5, was calculated for each compound and trolox, as a reference drug.

The nature of data set [5]: ABTS radical cation scavenging activity. On the procedure: as §2
A short description of data set [6]: Cupric ion reducing activity (CUPRAC). The method, then:
The cupric ion reducing activity (CUPRAC) was determined according to the method of Zengin et al.[38]. The sample solution (0.5 ml) was added to a premixed reaction mixture containing CuCl2 (1 ml, 10 mM), neocuproine (1 ml, 7.5 mM), and NH4Ac buffer (1 ml, 1 M, pH 7.0). Similarly, a blank was prepared by adding the sample solution (0.5 ml) to a premixed reaction mixture (3 ml) without CuCl2. The absorbances of the sample and blank were subsequently recorded at 450 nm after 30 min incubation at room temperature. The absorbance of the blank was subtracted from that of the sample.
as §1

A short description of data set [7]: Metal chelating activity on ferrous ions. Conditions: ferrozine. On the procedure: Metal chelating activity on ferrous ions was evaluated by the method previously described. Briefly, the sample solution (2 ml) was added to FeCl2 solution (0.05 ml, 2 mM). The reaction was initiated by the addition of 5 mM ferrozine (0.2 ml). Similarly, a blank was prepared by adding the sample solution (2 ml) to FeCl2 solution (0.05 ml, 2 mM) and water (0.2 ml) without ferrozine. Then, the sample and blank absorbance were recorded at 562 nm after incubation for 10 min at room temperature. The absorbance of the blank was subtracted from that of the sample. EDTA was used as a positive control and this property was expressed as IC50 value for each compound.

Data set [8] addresses T1, hMAO-B. The data set is described as follows: Reversibility of MAO-B inhibition by dialysis. In kind it is biochemical. On the procedure: Stock solutions of the test compounds were prepared in DMSO and added to the incubations to yield 4% DMSO. The samples were dialyzed for 24 h at 4 °C in 80 ml of dialysis buffer using Slide-A-Lyzer® dialysis cassettes (Thermo Scientific) with a molecular weight cut-off of 10,000 and a sample volume capacity of 0.5–3 ml. The dialysis buffer was replaced at 3 and 7 h after the start of dialysis. Following dialysis, the dialysis samples were diluted twofold with the addition of kynuramine to yield a kynuramine concentration and inhibitor concentration of 50 µM and 2 × IC50, respectively. The reactions (500 µL) were incubated for 20 min at 37 °C and terminated with NaOH (400 μL, 2 N) and water (1000 µL). The fluorescence of 4-hydroxyquinoline in these samples was measured as described for the IC50 determination above. […] Undialysed mixtures of MAO-B and the test inhibitors were maintained at 4 °C for 24 h and diluted and assayed as above. All reactions were carried out in triplicate and the residual enzyme catalytic rates are expressed as mean ± SD.
Reversibility of MAO inhibition is an important factor to consider when evaluating the inhibition properties of potential inhibitors. Irreversible MAO inhibitors, particularly of the MAO-A isoform, are associated with dangerous adverse effects such as the cheese reaction, which occurs when irreversible MAO-A inhibitors are taken with tyramine-rich food[51]. […] The samples were diluted twofold and the residual MAO-B activity was measured. For reversible inhibition, dialysis is expected to reverse inhibition by the test inhibitors and restore enzyme activity to the level of the negative control. […] A final experiment consisted of incubations containing MAO-B and tested inhibitors which were not dialyzed, but maintained for 24 h.

Data set [9] addresses T1, hMAO-B. The data set is described as follows: Lineweaver-Burk plots, mode of inhibition and Ki. In kind it is biochemical. The method, then:
To construct Lineweaver–Burk plots, the enzyme reactions were carried out to a volume of 500 µL and the concentration of MAO-B was 0.015 mg protein/mL. All enzyme reactions and activity measurements were carried out as described above for the dialysis experiments. The first plot was constructed in the absence of inhibitor, while the remaining five plots were constructed in the presence of the following concentrations: ¼ × IC50, ½ × IC50, ¾ × IC50, 1 × IC50 and 1¼ × IC50. For each line, kynuramine was used at concentrations of 15–250 μM. The Ki value was estimated from a plot of the slopes of the Lineweaver–Burk plots versus inhibitor concentration (x-axis intercept equals –Ki).
To provide further support for the reversibility of MAO-B inhibition by compounds 4 and 37, a set of Lineweaver–Burk plots was constructed for each inhibitor at the following inhibitor concentrations: ¼ × IC50, ½ × IC50, ¾ × IC50, 1 × IC50, and 1¼ × IC50. The substrate, kynuramine, was used at 15–250 µM for each line. […] The lines of the plots intersect on the y-axis and a replot of the slopes versus inhibitor concentration yields a linear line, from which the enzyme-inhibitor dissociation constant (Ki) was estimated (Ki = −x-axis intercept).

[10] abbreviates: recombinant hMAO-B, kynuramine 50 μM, 20 min, 37 °C, read-out: IC50 hMAO-B.

Read-outs that look alike come from different tables or passages of the source.

Compound `O=[N+]([O-])c1cccc(-c2csc(NN=Cc3ccco3)n2)c1` [Compound 1, 1-(Furan-2-ylmethylene)-2-(4-(3-nitrophenyl)thiazol-2-yl)hydrazine] gave a melting point of 213 to 215 °C. Besides, the IC50 on hMAO-B [1] (setting [10]) was determined as 0.095 µM.
Take `CC(=NNc1nc(-c2cccc([N+](=O)[O-])c2)cs1)c1ccsc1` [Compound 5, 1-(4-(3-Nitrophenyl)thiazol-2-yl)-2-(1-(thiophen-3-yl)ethylidene)hydrazine]: the figures for the EC50 in data set [2], in data set [4] and in [6] were 520 ± 20 µM, 1160 ± 30 µM and 480 ± 30 µM, respectively. Also, the IC50 in [3] is 1210 ± 10 µM; in [5] it was 1050 ± 20 µM; against hMAO-B [1], 0.0025 µM; in [7], > 5000 µM.
`CC(=NNc1nc(-c2cccc([N+](=O)[O-])c2)cs1)c1ccccc1` [Compound 11, 1-(4-(3-Nitrophenyl)thiazol-2-yl)-2-(1-phenylethylidene)hydrazine] registered a melting point of 261 to 263 °C. The compound further registered an EC50 in [2] of 590 ± 10 µM. In [3], this compound displayed an IC50 of 1280 ± 10 µM. In data set [4], the EC50 amounted to 1460 ± 80 µM. Moreover, the IC50 in [5] was found to be 1040 ± 10 µM. On hMAO-B [1], half-maximal inhibition (IC50) required 0.0071 µM and the “Selectivity index (SI) for the MAO-B isoform” value (from here on “Selectivity index (SI)”) came to 666. This compound also displayed an EC50 in data set [6] of 550 ± 20 µM. Besides, the IC50 in data set [7] was > 5000 µM.
Turning to `CC(=NNc1nc(-c2cccc([N+](=O)[O-])c2)cs1)c1ccccc1[N+](=O)[O-]` [Compound 13, 1-(1-(2-Nitrophenyl)ethylidene)-2-(4-(3-nitrophenyl)thiazol-2-yl)hydrazine], the results for the 50% effective concentration (EC50) in data set [2], in data set [4] and in [6] were 450 ± 40 µM, 3100 ± 360 µM and 400 ± 10 µM, respectively. Moreover, the IC50 was 1590 ± 10 µM in data set [3], 1040 ± 10 µM in [5], 0.0044 µM on hMAO-B [1] (setting [10]) and > 5000 µM in data set [7]. For the same compound, the “Selectivity index (SI)” value on hMAO-B [1] was 3477.
Regarding `CC(=O)c1ccc(C(C)=NNc2nc(-c3cccc([N+](=O)[O-])c3)cs2)cc1` [Compound 31, 1-(1-(4-Acetylphenyl)ethylidene)-2-(4-(3-nitrophenyl)thiazol-2-yl)hydrazine], the melting point is 205 to 207 °C. Besides, the “Selectivity index (SI)” value on hMAO-B [1] came out at 5.4. Also, the IC50 on hMAO-B [1] (setting [10]) stood at 42.1 µM.
As for `Nc1cccc(-c2csc(N/N=C/c3cccs3)n2)c1` [Compound 37], the “Reversibility of MAO-B inhibition” value at hMAO-B [8] (dialysis 24 h) is given as “fully reversible”. Also, the “Residual MAO-B activity, undialysed mixtures” value on hMAO-B [8] (inhibitor at 4 × IC50, not dialyzed, maintained 24 h) came out at 20%. In addition, the “Residual MAO-B activity after dialysis” value at hMAO-B [8] (inhibitor at 4 × IC50, preincubated 15 min, dialyzed 24 h, relative to negative control) turned out to be 97%. Half-maximal inhibition against hMAO-B [1] (IC50) required 2.67 µM. The compound further returned a Ki on hMAO-B [9] of 1.84 µM. Also, at hMAO-B [9] (Lineweaver-Burk plots), the “Mode of MAO-B inhibition” value is recorded as “competitive”.

As a reminder, the melting point is the temperature of the solid-liquid transition. In general, IC50 refers to the concentration that inhibits the measured activity by half. For orientation: EC50 means the concentration giving half of the maximal effect. Higher therefore signals a need for much substance. The term Ki denotes a measure of affinity in units of concentration, obtained from inhibition or displacement.
